Measured values from patent US10787435B2, “ASK1 inhibitor and preparation method and use thereof” (FUJIAN COSUNTER PHARMACEUTICAL CO., LTD., priority 2017, dated 2020).

How the values were obtained:
[1] = target: ASK1/MAP3K5 (Homo sapiens (Human), UniProt Q99683); assay: Evaluation of in vitro enzyme activity (33P-ATP radiometric kinase assay, MBP substrate); format: biochemical; settings: recombinant human full length GST-tagged ASK1 20 nM, MBP 20 μM
Protocol: Example 1: Evaluation of In Vitro Enzyme Activity
Base Reaction Buffer: 20 mM Hepes (pH 7.5), 10 mM MgCl2, 1 mM EGTA, 0.02% Brij35, 0.02 mg/ml BSA, 0.1 mM Na3VO4, 2 mM DTT, 1% DMSO
The test compound was formulated into a 10 mM stock solution in DMSO, which was diluted into 10 concentrations in 3-fold degression, and placed in a 384-well plate (Cyclic Olefin Copolymer LDV Echo®).
Kinase Name: ASK1/MAP3K5 (Invitrogen, Carlsbad, Calif.)
Type: Recombinant Human Full Length Protein, GST-tagged
Final concentration of the enzyme: 20 nM
Substrate: Myelin basic protein, MBP (Active Motif, Carlsbad, Calif.)
Final concentration of the substrate: 20 μM
1. The substrate was dissolved in a freshly prepared base reaction buffer.
2. A desired coenzyme was added to the above substrate solution.
3. The kinase was added to the substrate solution and mixed slowly.
4. The solution of the test compound in DMSO was added to the kinase reaction solution and incubated at room temperature for 20 minutes.
5. ^33P-ATP (specific activity of 10 μCi/μl) was added to the reaction solution to initiate the reaction.
6. Incubated at room temperature for 2 hours.
7. A small portion of the reactants was placed onto a P-81 ion exchange filter paper.
8. The filter paper was washed three times with 0.75% […] to wash off the unbound phosphate, and then the filter paper was dried.
9. The radioactivity remaining on the filter paper was determined.
10. Kinase activity data was expressed as the ratio of the kinase activity remaining in the test sample to the kinase activity in the vehicle (DMSO).
11. IC50 values and curve fits was obtained with Prism (GraphPad software).

[2] = Studies on pharmacokinetic properties in mice (plasma concentration by LC-MS/MS); format: in vivo; settings: C57BL/6 male mice, dose not stated; for Exposure: intravenous or oral administration; for bioavailability: mouse, po, intragastric vs tail vein
Protocol: Example 2: Studies on Pharmacokinetic Properties
C57BL/6 male mice were used as subject animals in the study. The concentration of the drug in the plasma of mice injected intravenously or administrated orally with the test compound was quantified at different time points by using a LC/MS/MS method to evaluate the pharmacokinetic characteristics of the test drug in mice.
A clear solution of the test compound was injected into C57BL/6 mice (overnight-fasted, 7-10 weeks old) via the tail vein, and the test compound was intragastrically administered to C57BL/6 mice (overnight-fasted, 7-10 weeks old). Approximately 30 μL of blood was collected from each animal via the jugular vein or tail vein at 0.0833, 0.25, 0.5, 1, 2, 4, 6, 8 and 24 hours after administration, and placed in an anticoagulant tube supplemented with EDTA-K2. Centrifuged at 3000 g at 4° C. for 15 min, and the plasma was collected. The plasma concentration was determined by LC-MS/MS. The pharmacokinetic parameters were calculated by using the non-compartment model and linear logarithmic trapezoidal method using the pharmacokinetic software WinNonlin™ Version 6.3 (Pharsight, Mountain View, Calif.).

ASK1/MAP3K5, sequence (Q99683 whole entry): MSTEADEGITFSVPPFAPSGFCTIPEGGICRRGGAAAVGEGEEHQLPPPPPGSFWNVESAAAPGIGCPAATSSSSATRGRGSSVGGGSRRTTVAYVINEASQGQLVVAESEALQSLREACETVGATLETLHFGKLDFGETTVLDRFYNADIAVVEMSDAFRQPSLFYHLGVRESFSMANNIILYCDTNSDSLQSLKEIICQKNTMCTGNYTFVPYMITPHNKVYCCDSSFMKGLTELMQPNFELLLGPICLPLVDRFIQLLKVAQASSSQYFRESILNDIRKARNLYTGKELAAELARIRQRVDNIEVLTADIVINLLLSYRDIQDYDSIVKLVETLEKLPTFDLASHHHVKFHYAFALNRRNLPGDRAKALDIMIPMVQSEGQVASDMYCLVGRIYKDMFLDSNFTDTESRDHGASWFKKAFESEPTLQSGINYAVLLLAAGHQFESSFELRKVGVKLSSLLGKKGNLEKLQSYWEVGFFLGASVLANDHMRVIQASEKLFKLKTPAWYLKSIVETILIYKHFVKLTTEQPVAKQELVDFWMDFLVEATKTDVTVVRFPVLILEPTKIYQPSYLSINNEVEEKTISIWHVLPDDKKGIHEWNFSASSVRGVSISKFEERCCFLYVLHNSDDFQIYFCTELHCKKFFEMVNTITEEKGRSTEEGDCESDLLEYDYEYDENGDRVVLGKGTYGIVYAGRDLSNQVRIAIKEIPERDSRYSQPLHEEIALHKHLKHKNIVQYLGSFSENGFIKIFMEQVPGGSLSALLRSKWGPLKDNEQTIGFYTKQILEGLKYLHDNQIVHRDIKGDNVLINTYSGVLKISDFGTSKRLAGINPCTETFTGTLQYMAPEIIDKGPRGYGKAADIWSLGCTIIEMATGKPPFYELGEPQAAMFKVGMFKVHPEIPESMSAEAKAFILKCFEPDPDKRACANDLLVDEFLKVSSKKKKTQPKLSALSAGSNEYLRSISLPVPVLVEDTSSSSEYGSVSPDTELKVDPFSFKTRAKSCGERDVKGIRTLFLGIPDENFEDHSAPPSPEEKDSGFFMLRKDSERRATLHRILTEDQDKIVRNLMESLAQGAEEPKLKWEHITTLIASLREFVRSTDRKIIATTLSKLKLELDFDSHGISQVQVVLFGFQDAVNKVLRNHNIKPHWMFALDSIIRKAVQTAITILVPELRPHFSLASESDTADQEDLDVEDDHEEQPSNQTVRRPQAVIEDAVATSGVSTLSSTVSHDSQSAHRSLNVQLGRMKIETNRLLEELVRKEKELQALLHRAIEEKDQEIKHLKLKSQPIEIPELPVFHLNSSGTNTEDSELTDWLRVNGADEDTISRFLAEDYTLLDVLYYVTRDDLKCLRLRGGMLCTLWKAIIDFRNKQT

SMILES: CC(C)n1cnnc1-c1cccc(N2CCc3ccc(-n4cnc(C5CC5)c4)cc3C2=O)n1 [Example 001]
- IC50 [1]: ≤ 0.05 µM
- Exposure [2]: 69.652 µM·h
- bioavailability [2]: 133%

SMILES: Cc1cc2c(cc1-n1cnc(C3CC3)c1)C(=O)N(c1cccc(-c3nncn3C(C)C)n1)CC2 [Example 002]
- IC50 [1]: ≤ 0.05 µM
- Exposure [2]: 29.277 µM·h
- bioavailability [2]: 92%

SMILES: CC(C)n1cnnc1-c1cccc(-n2cc(F)c3ccc(-n4cnc(C5CC5)c4)cc3c2=O)n1 [Example 003]
- IC50 [1]: ≤ 0.05 µM
- Exposure [2]: 66.259 µM·h
- bioavailability [2]: 214%

SMILES: CC(C)n1cnnc1-c1cccc(-n2ccc3ccc(-n4cnc(C5CC5)c4)cc3c2=O)n1 [Example 004]
- IC50 [1]: ≤ 0.05 µM

SMILES: CC(C)n1cnnc1-c1cccc(N2Cc3ccc(-n4cnc(C5CC5)c4)cc3C2=O)n1 [Example 005]
- IC50 [1]: ≤ 0.05 µM

SMILES: Cc1cc2ccn(-c3cccc(-c4nncn4C(C)C)n3)c(=O)c2cc1-n1cnc(C2CC2)c1 [Example 006]
- IC50 [1]: ≤ 0.05 µM

SMILES: Cc1cc2c(F)cn(-c3cccc(-c4nncn4C(C)C)n3)c(=O)c2cc1-n1cnc(C2CC2)c1 [Example 007]
- IC50 [1]: ≤ 0.05 µM
- Exposure [2]: 29.007 µM·h
- bioavailability [2]: 123%

SMILES: Cc1cc2c(cc1-n1cnc(C3CC3)c1)C(=O)N(c1cccc(-c3nnc4n3CCC4)n1)CC2 [Example 008]
- IC50 [1]: ≤ 0.05 µM
- Exposure [2]: 103.95 µM·h
- bioavailability [2]: 98.5%

SMILES: Cc1cc2c(cc1-n1cnc(C3CC3)c1)C(=O)N(c1cccc(-c3nnc4n3CCCC4)n1)CC2 [Example 009]
- IC50 [1]: ≤ 0.05 µM
- Exposure [2]: 89.099 µM·h
- bioavailability [2]: 115%

SMILES: O=C1c2cc(-n3cnc4c3CCCC4)ccc2CCN1c1cccc(-c2nnc3n2CCCC3)n1 [Example 010]
- IC50 [1]: 0.05 to 1 µM

SMILES: Cc1cc2ncn(-c3cccc(-c4nncn4C(C)C)n3)c(=O)c2cc1-n1cnc(C2CC2)c1 [Example 011]
- IC50 [1]: ≤ 0.05 µM
- Exposure [2]: 31.832 µM·h
- bioavailability [2]: 108%

SMILES: Cc1nc(C2CC2)cn1-c1ccc2c(c1)C(=O)N(c1cccc(-c3nnc4n3CCCC4)n1)CC2 [Example 012]
- IC50 [1]: > 1 µM

SMILES: CC(C)n1cnnc1-c1cccc(-n2cnc3ccc(-n4cnc(C5CC5)c4)cc3c2=O)n1 [Example 013]
- IC50 [1]: ≤ 0.05 µM

SMILES: Cc1cc2ncn(-c3cccc(-c4nnc5n4CCCC5)n3)c(=O)c2cc1-n1cnc(C2CC2)c1 [Example 014]
- IC50 [1]: 0.05 to 1 µM

SMILES: Cc1cc2ncn(-c3cccc(-c4nnc(C)n4C)n3)c(=O)c2cc1-n1cnc(C2CC2)c1 [Example 015]
- IC50 [1]: > 1 µM

SMILES: Cc1cc2ncn(-c3cccc(-c4nnc(C)n4C(C)C)n3)c(=O)c2cc1-n1cnc(C2CC2)c1 [Example 016]
- IC50 [1]: 0.05 to 1 µM

SMILES: Cc1cc2c(F)cn(-c3cccc(-c4nnc5n4CCCC5)n3)c(=O)c2cc1-n1cnc(C2CC2)c1 [Example 017]
- IC50 [1]: 0.05 to 1 µM

SMILES: Cc1cc2ncn(-c3cccc(-c4nncn4C4CC4)n3)c(=O)c2cc1-n1cnc(C2CC2)c1 [Example 018]
- IC50 [1]: ≤ 0.05 µM
- Exposure [2]: 59.568 µM·h
- bioavailability [2]: 111%

SMILES: Cc1cc2ncn(-c3cccc(-c4nncn4CC(F)(F)F)n3)c(=O)c2cc1-n1cnc(C2CC2)c1 [Example 019]
- IC50 [1]: ≤ 0.05 µM

SMILES: Cc1nnc(-c2cccc(-n3cnc4cc(C)c(-n5cnc(C6CC6)c5)cc4c3=O)n2)o1 [Example 020]
- IC50 [1]: > 1 µM

SMILES: CC(C)n1cnnc1-c1cccc(-n2cnc3cc(Cl)c(-n4cnc(C5CC5)c4)cc3c2=O)n1 [Example 021]
- IC50 [1]: ≤ 0.05 µM

SMILES: CCc1cc2ncn(-c3cccc(-c4nncn4C(C)C)n3)c(=O)c2cc1-n1cnc(C2CC2)c1 [Example 022]
- IC50 [1]: ≤ 0.05 µM

SMILES: CC(C)n1cnnc1-c1cccc(-n2cnc3cc(-c4ccccc4)c(-n4cnc(C5CC5)c4)cc3c2=O)n1 [Example 023]
- IC50 [1]: ≤ 0.05 µM

SMILES: CC(C)n1cnnc1-c1cccc(-n2cnc3cc(-c4cccnc4)c(-n4cnc(C5CC5)c4)cc3c2=O)n1 [Example 024]
- IC50 [1]: ≤ 0.05 µM

SMILES: CC(C)n1cnnc1-c1cccc(-n2cnc3cc(-c4ccsc4)c(-n4cnc(C5CC5)c4)cc3c2=O)n1 [Example 025]
- IC50 [1]: ≤ 0.05 µM

SMILES: Cc1cc2ncn(-c3cccc(-c4nnc5n4CCC5)n3)c(=O)c2cc1-n1cnc(C2CC2)c1 [Example 028]
- IC50 [1]: 0.05 to 1 µM

SMILES: COc1nc2cc(C)c(-n3cnc(C4CC4)c3)cc2c(=O)n1-c1cccc(-c2nncn2C(C)C)n1 [Example 029]
- IC50 [1]: > 1 µM

SMILES: COc1cc2ncn(-c3cccc(-c4nncn4C(C)C)n3)c(=O)c2cc1-n1cnc(C2CC2)c1 [Example 031]
- IC50 [1]: ≤ 0.05 µM

SMILES: Cc1ccc(-c2cc3ncn(-c4cccc(-c5nncn5C(C)C)n4)c(=O)c3cc2-n2cnc(C3CC3)c2)cn1 [Example 032]
- IC50 [1]: ≤ 0.05 µM

SMILES: COc1ccc(-c2cc3ncn(-c4cccc(-c5nncn5C(C)C)n4)c(=O)c3cc2-n2cnc(C3CC3)c2)cn1 [Example 033]
- IC50 [1]: ≤ 0.05 µM
- Exposure [2]: 20.356 µM·h
- bioavailability [2]: 148%

SMILES: CC(C)n1cnnc1-c1cccc(-n2cnc3cc(-c4ccc(N)nc4)c(-n4cnc(C5CC5)c4)cc3c2=O)n1 [Example 034]
- IC50 [1]: ≤ 0.05 µM

SMILES: COCCOc1cc2ncn(-c3cccc(-c4nncn4C(C)C)n3)c(=O)c2cc1-n1cnc(C2CC2)c1 [Example 035]
- IC50 [1]: ≤ 0.05 µM

SMILES: CC(C)n1cnnc1-c1cccc(-n2cnc3cc(O)c(-n4cnc(C5CC5)c4)cc3c2=O)n1 [Example 037]
- IC50 [1]: ≤ 0.05 µM

SMILES: CC(C)n1cnnc1-c1cccc(-n2cnc3cc(OCC(N)=O)c(-n4cnc(C5CC5)c4)cc3c2=O)n1 [Example 038]
- IC50 [1]: ≤ 0.05 µM

SMILES: CNC(=O)COc1cc2ncn(-c3cccc(-c4nncn4C(C)C)n3)c(=O)c2cc1-n1cnc(C2CC2)c1 [Example 039]
- IC50 [1]: ≤ 0.05 µM

SMILES: CC(C)n1cnnc1-c1cccc(-n2cnc3cc(OCCCS(C)(=O)=O)c(-n4cnc(C5CC5)c4)cc3c2=O)n1 [Example 040]
- IC50 [1]: ≤ 0.05 µM

SMILES: CC(C)n1cnnc1-c1cccc(-n2cnc3cc(OCCO)c(-n4cnc(C5CC5)c4)cc3c2=O)n1 [Example 041]
- IC50 [1]: ≤ 0.05 µM

SMILES: Cc1cc2ncn(-c3csc(-c4nncn4C(C)C)c3)c(=O)c2cc1-n1cnc(C2CC2)c1 [Example 042]
- IC50 [1]: > 1 µM

SMILES: Cc1cc2ncn(-c3cccc(-c4nncn4C(C)C)c3)c(=O)c2cc1-n1cnc(C2CC2)c1 [Example 043]
- IC50 [1]: > 1 µM

SMILES: Cc1cc2ncn(-c3cccc(-c4nncn4C4CCCC4)n3)c(=O)c2cc1-n1cnc(C2CC2)c1 [Example 044]
- IC50 [1]: ≤ 0.05 µM

SMILES: CCC(CC)n1cnnc1-c1cccc(-n2cnc3cc(C)c(-n4cnc(C5CC5)c4)cc3c2=O)n1 [Example 045]
- IC50 [1]: ≤ 0.05 µM

SMILES: Cc1cc2ncn(-c3csc(-c4nncn4C(C)C)n3)c(=O)c2cc1-n1cnc(C2CC2)c1 [Example 046]
- IC50 [1]: ≤ 0.05 µM

SMILES: Cc1cc2ncn(-c3cccc(-c4nncn4C(C)(C)C)n3)c(=O)c2cc1-n1cnc(C2CC2)c1 [Example 047]
- IC50 [1]: ≤ 0.05 µM

SMILES: Cc1cc2ncn(-c3cccc(-c4nncn4C4CCOCC4)n3)c(=O)c2cc1-n1cnc(C2CC2)c1 [Example 048]
- IC50 [1]: 0.05 to 1 µM

SMILES: Cc1cc2ncn(-c3cccc(-c4nncn4C4CCC(F)(F)CC4)n3)c(=O)c2cc1-n1cnc(C2CC2)c1 [Example 049]
- IC50 [1]: 0.05 to 1 µM

SMILES: Cc1cc2ncn(-c3cccc(-c4nncn4C(C)C)n3)c(=O)c2cc1-n1cnc(-c2ccccc2)c1 [Example 050]
- IC50 [1]: ≤ 0.05 µM

SMILES: Cc1cc2ncn(-c3cccc(-c4nncn4C4CCCCC4)n3)c(=O)c2cc1-n1cnc(C2CC2)c1 [Example 051]
- IC50 [1]: ≤ 0.05 µM

SMILES: Cc1cc2ncn(-c3cccc(-c4nncn4C(C)C)n3)c(=O)c2cc1-c1ccc(C(C)C)nc1 [Example 052]
- IC50 [1]: ≤ 0.05 µM

SMILES: CC(C)n1cnnc1-c1cccc(-n2cnc3cc(OCCCF)c(-n4cnc(C5CC5)c4)cc3c2=O)n1 [Example 054]
- IC50 [1]: ≤ 0.05 µM

SMILES: CC(C)n1cnnc1-c1cccc(-n2cnc3cc(N(C)C)c(-n4cnc(C5CC5)c4)cc3c2=O)n1 [Example 055]
- IC50 [1]: ≤ 0.05 µM

SMILES: CC(C)n1cnnc1-c1cccc(-n2cnc3cc(N4CCOCC4)c(-n4cnc(C5CC5)c4)cc3c2=O)n1 [Example 056]
- IC50 [1]: ≤ 0.05 µM

SMILES: Cc1cc2ncn(-c3cccc(-c4nncn4C(C)CO)n3)c(=O)c2cc1-n1cnc(C2CC2)c1 (centres unmarked) [Example 057]
- IC50 [1]: ≤ 0.05 µM

SMILES: CC(C)n1cnnc1-c1cccc(-n2cnc3cc(OCC4COC4)c(-n4cnc(C5CC5)c4)cc3c2=O)n1 [Example 058]
- IC50 [1]: ≤ 0.05 µM
